Publication PMC6658769, “First-Time-in-Human Study and Prediction of Early Bactericidal Activity for GSK3036656, a Potent Leucyl-tRNA Synthetase Inhibitor for Tuberculosis Treatment” (Antimicrobial Agents and Chemotherapy, 2019)
Read-outs that look alike come from different tables or passages of the source.

How the values were obtained:
in vitro [1] = format: in vitro ADME; conditions: mouse, plasma
[2] = FTIH part B: plasma pharmacokinetics and accumulation after repeat dose; conditions: human, po
[3] = Stability in pooled and spiked urine; format: physicochemical, human; conditions: multiple freeze-thaw cycles and prolonged exposure to light
in vitro [4] = format: in vitro ADME, humans; conditions: human, plasma
[5] = Nonclinical toxicity studies (NOAEL exposure); format: in vivo; conditions: oral
From the text: The principal findings observed in nonclinical toxicity studies following oral administration of GSK3036656 were cardiovascular and hematopoietic, with some minor changes in the liver, kidney, and thymus. The hematopoietic, kidney, liver, and thymus effects are considered either nonadverse or monitorable in the clinic. The structural cardiovascular changes that occurred in a single species at high doses were nonmonitorable but occurred at plasma concentrations where heart rate (HR) and blood pressure (BP) changes are recorded. Specific cardiovascular safety endpoints were included in the first-time-in-human (FTIH) study, including vital sign (HR and BP) stopping criteria.

in vitro [6] = format: in vitro ADME; conditions: rat, plasma
[7] = biological target: breast cancer resistance protein (Homo sapiens, UniProt Q9UNQ0); assay: BCRP substrate assessment; format: in vitro ADME; conditions: in vitro
Chain of breast cancer resistance protein (Q9UNQ0 whole entry): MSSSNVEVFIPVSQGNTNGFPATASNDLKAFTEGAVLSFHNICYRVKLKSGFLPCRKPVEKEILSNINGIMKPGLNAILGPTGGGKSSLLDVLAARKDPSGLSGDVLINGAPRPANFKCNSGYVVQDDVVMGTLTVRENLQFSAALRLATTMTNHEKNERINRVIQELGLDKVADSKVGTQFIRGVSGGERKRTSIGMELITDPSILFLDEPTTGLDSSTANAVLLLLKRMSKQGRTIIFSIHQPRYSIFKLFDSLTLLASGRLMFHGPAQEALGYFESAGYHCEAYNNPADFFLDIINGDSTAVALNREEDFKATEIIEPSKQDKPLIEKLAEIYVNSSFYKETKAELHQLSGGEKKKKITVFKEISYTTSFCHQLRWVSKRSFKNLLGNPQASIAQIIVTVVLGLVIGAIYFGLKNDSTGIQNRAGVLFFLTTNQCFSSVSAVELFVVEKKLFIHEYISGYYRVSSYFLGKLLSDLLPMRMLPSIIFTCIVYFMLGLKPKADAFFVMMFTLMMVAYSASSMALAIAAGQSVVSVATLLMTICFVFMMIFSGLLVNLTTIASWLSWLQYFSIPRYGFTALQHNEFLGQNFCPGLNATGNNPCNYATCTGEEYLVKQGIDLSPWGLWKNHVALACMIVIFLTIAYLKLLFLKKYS

cytochrome P450s = format: in vitro ADME
[8] = rat, in vivo
[9] = format: in vitro ADME; conditions: not told
[10] = human, in vivo
[11] = dog, in vivo
clinical = conditions: human, in vivo
in vitro [12] = format: in vitro ADME; conditions: dog, plasma
CYP3A4 = CYP3A4 (Homo sapiens, UniProt P08684); assay: Metabolism-dependent inhibition or induction of CYP3A4; format: in vitro ADME; conditions: in vitro
Chain of CYP3A4 (P08684 whole entry): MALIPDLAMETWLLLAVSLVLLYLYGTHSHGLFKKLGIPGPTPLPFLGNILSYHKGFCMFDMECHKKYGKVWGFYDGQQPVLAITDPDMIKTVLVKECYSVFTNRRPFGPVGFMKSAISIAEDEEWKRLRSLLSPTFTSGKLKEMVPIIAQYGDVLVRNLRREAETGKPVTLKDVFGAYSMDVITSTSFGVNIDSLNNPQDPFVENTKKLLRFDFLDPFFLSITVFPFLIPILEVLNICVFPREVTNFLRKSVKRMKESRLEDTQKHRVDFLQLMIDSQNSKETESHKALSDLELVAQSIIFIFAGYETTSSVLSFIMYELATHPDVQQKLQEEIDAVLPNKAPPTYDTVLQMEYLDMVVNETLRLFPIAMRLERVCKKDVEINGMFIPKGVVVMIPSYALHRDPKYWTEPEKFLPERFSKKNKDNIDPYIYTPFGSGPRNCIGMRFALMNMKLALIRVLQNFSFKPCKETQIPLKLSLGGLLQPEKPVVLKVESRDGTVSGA

M. tuberculosis H37Rv = assay: Chronic lung infection model in mice; format: in vivo, C57BL/6 mice
Procedure: (§1) The efficacy of GSK3036656 was assessed in C57BL/6 mice having acute and chronic lung infections by M. tuberculosis H37Rv, which mimic infections by actively replicating and nonreplicating/slow-replicating mycobacteria, respectively ([13], [14]). In the acute model, 10 mice were administered different daily oral doses ranging from 0.1 to 100 mg/kg of body weight for 8 days starting 1 day after infection. A maximum difference of 3.6 log CFU was obtained in the lungs compared to untreated mice. […] In the chronic model, a total of 18 mice were administered doses ranging from 0.1 to 30 mg/kg from weeks 6 to 14 after infection. Maximum reduction (drop of 2.1 log10 CFU in the lungs) was achieved after 2 months of daily oral treatment and after fitting the data to a sigmoidal curve. The EDmax for GSK3036656 was estimated as 1.3 mg/kg ([…], 0.7 to 3.4 mg/kg). […] Some additional groups treated at 0.3 to 30 mg/kg were studied in the chronic model to obtain kinetic data (from 2 to 16 weeks of treatment).

[13] = Chronic lung infection model in mice; format: in vivo, C57BL/6 mice; conditions: C57BL/6, mouse, in vivo, 1.3 mg/kg, read-out: plasma steady-state AUC associated with EDmax (AUCEDmax), target exposure for efficacy in humans
Procedure: as §1

Q: What does the source list for `NC[C@H]1OB(O)c2c(OCCO)ccc(Cl)c21` [GSK3036656, (S)-3-(aminomethyl)-4-chloro-7-(2-hydroxyethoxy)benzo[c][1,2]oxaborol-1(3H)-ol]?
A: fraction unbound (in vitro [1]): 0.792; half-life at 14 days ([2]; 5 mg): 44 h; half-life at 14 days ([2]; 15 mg): 37 h; stability in pooled and spiked urine [3]: degraded to GSK3635633; fraction unbound (in vitro [4]): 0.838; AUC ([5]; plasma): 4900 ng·h/mL; Cmax ([5]; serum): < 443 ng/mL; fraction unbound (in vitro [6]): 0.688; substrate specificity for breast cancer resistance protein [7]: lack of substrate specificity; direct inhibition of cytochrome P450s (cytochrome P450s): minimal evidence for direct inhibition; oral bioavailability [8]: very high; passive permeability [9]: moderate; Absorption lag time, bootstrap median estimate [10]: 0.24 h; Absorption lag time, estimate (%SE) [10]: 0.235 (3) h; Ka, bootstrap median estimate [10]: 0.95 h⁻¹; Ka, estimate (%SE) [10]: 0.925 (23) h^−1; Residual variability (Prop), bootstrap median estimate [10]: 12.6%; Residual variability (Prop), estimate (%SE) [10]: 12.9 (16) %; oral bioavailability [11]: very high; AUC (clinical; both, 15 mg, steady-state AUC (on average)): 4460 ng·h/mL; AUC(0-t) (clinical; po, 5 mg): 486 ng·h/mL; Cmax (clinical; po, 5 mg): 48.4 ng/mL; Cmax at 14 days (clinical; po, 5 mg): 97 ng/mL; Tmax (clinical; po, 5 mg): 1.3 h; Tmax at 14 days (clinical; po, 5 mg): 0.8 h; AUC (clinical; po, 5 mg, AUC(Ro), geometric LS mean, Ref): 486 ng·h/mL; AUC (clinical; po, 5 mg, AUC(Ro), geometric LS mean, Test): 1390 ng·h/mL; AUC (clinical; po, 5 mg, Geometric mean AUC0–τ (%CVb)): 1390 ng·h/mL; AUC(0-t) (clinical; po, 15 mg): 1890 ng·h/mL; Cmax (clinical; po, 15 mg): 179 ng/mL; Cmax at 14 days (clinical; po, 15 mg): 310 ng/mL; Tmax at 14 days (clinical; po, 15 mg): 0.8 h; AUC (clinical; po, 15 mg, AUC(Ro), geometric LS mean, Ref): 1890 ng·h/mL; AUC (clinical; po, 15 mg, AUC(Ro), geometric LS mean, Test): 4460 ng·h/mL; AUC (clinical; po, 15 mg, Geometric mean AUC0–τ (%CVb)): 4460 ng·h/mL; fraction unbound (in vitro [12]): 0.76; metabolism-dependent inhibition or induction of CYP3A4 (CYP3A4): no evidence; maximum reduction (drop of CFU in the lungs) (M. tuberculosis H37Rv; 2 months of daily oral treatment): 2.1 log10 CFU; EDmax (M. tuberculosis H37Rv; sigmoidal fit): 1.3 mg/kg; AUC [13]: 1740 ng·h/mL
